{"source": "patent EP3095787A1", "about": "“[…] ACTIVE COMPOUNDS AS DAG-LIPASE INHIBITORS” (Universiteit Leiden, priority 2015, dated 2016)", "key": {"hDAGL-α": {"target": "T1, hDAGL-α (Homo sapiens, UniProt Q9Y4D2)", "T1 sequence (Q9Y4D2 1-1042)": "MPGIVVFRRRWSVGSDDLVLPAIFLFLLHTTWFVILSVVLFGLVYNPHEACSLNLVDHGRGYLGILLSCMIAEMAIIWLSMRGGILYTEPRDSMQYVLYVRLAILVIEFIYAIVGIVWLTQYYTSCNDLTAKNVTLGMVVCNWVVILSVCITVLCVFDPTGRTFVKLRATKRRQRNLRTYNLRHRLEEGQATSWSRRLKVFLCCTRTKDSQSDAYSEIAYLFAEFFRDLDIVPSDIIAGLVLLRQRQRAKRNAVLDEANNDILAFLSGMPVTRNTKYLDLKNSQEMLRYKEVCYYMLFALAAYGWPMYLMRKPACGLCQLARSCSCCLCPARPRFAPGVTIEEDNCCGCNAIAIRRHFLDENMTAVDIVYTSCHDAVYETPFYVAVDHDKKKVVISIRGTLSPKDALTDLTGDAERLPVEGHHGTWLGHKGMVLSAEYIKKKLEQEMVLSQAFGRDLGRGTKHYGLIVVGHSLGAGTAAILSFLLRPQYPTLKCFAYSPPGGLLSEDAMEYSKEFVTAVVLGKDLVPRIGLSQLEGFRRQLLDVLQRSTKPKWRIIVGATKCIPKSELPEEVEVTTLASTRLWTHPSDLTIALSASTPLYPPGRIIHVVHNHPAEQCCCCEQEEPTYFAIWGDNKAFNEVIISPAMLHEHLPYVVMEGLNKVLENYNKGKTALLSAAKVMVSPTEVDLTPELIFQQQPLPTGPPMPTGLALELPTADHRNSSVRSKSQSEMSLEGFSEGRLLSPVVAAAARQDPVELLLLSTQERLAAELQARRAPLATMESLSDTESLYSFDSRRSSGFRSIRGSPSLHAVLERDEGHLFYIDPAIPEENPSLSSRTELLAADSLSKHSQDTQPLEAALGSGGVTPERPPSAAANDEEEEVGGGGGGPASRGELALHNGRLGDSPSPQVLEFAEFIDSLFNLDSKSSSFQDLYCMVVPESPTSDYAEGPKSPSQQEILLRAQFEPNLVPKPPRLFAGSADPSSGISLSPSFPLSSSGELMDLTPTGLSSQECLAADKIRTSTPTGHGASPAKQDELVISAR", "assay": "Mode of action (reversibility) experiment: size exclusion chromatography, then MB064 labeling", "assay_type": "biochemical", "set-up": "expressed in transfected cells", "settings": "pre-incubation at IC80 concentration; remaining activity visualized with MB064; n=3", "procedure": "To determine the mode of action (reversible versus irreversible) of the inventive compounds, an experiment in which human DAGL-α membranes were pre-incubated at the IC80 concentration of compound 25 or the irreversible DAGL inhibitor KT-109 was performed."}, "Neuro2A cells": {"system": "Neuro2A cells", "assay": "Targeted lipidomics in Neuro2A cells", "assay_type": "cell-based, mouse", "settings": "in situ treatment 1h, 37 °C; n=4", "procedure": "To test the cellular activity of inventive compound 25, the inventor used Neuro2A cells, which is a mouse neuroblastoma cell line known to express both DAGL-α and DAGL-β. In a targeted lipidomics experiment the effect of inventive compound 25 on the cellular levels of 2-AG and anandamide was determined.\nNeuro2A cells were cultured as described above. Before inhibitor treatment, the culture medium was removed and the cells were washed with warm (37 °C) serum free medium (3x). The cells were treated with vehicle (DMSO) or inhibitor for 1h at 37 °C in serum free medium. […]\nEndocannabinoids were measured using a chip-based nano liquid chromatography (LC) system coupled to a triple quadrupole mass spectrometer. […]\nA 6440 Triple quadrupole equipped with a nonoESI source operating in positive mode (Agilent technologies, Walborn, Germany) was used for MS detection. […] Quantification was obtained using static MRM (multiple reaction monitoring) mode of the transistions at m/z 379.3 → 287.2 for 2AG, 348.3 → 62.2 for AEA and 387.3 → 294.2 for 2AGd8, 356.3 → 62.2 for AEAd8 (internal standards). […] Raw MS data were processes using mass hunter quantitative analysis work station (Agilent technologies). AEA and 2AG was quantified by using a matrix matched internal standard calibration curve. […]"}}}
{"smiles": "Cc1ccc(-c2cnc3nc(C(=O)CCCCCc4ccccc4)oc3c2)cc1", "note": "[Compound 25, 1-(6-(p-Tolyl)oxazolo[4,5-b]pyridin-2-yl)-6-phenylhexan-1-one]", "values": [{"measurement": "recovery of DAGL-α activity after size exclusion chromatography", "setting": "hDAGL-α", "result": "reversibility"}, {"measurement": "anandamide levels", "setting": "Neuro2A cells", "result": "constant"}, {"measurement": "basal 2-AG levels", "setting": "Neuro2A cells", "result": "dose dependently decreased"}]}
